Among the data in patent US6355640B1, “Pyrazolopyridine adenosine antagonists” (Fujisawa Pharmaceutical Co., Ltd., priority 1993, dated 2002) are serum creatinine and melting point values, retold here.

Marks after values point to notes of the source that are not given here.

Usually melting point stands for the temperature, or range, at which the solid turns liquid.

One series concerns cisplatin induced renal failure. Briefly: Test 1. Effect on Cisplatin-induced Renal Failure. Particulars: Male JCL:SD rats, cisplatin 4.5 mg/kg i.p. at the same time as first dose; test compound 0.1 mg/kg i.v. twice a day for 3 days; measured on the 8th day; mean; p < 0.01 vs control group. Type of series: in vivo. The method, then:
Male JCL:SD strain rats aged 9 weeks weighing 280-300 g received cisplatin (4.5 mg/kg) intraperitoneally. Normal rats were injected with an equal amount of saline instead of cisplatin. The effect of repeated intravenous administration of the test compound (0.1 mg/kg, twice a day) on cisplatin induced renal failure was investigated in rats. Cisplatin was given at the same time of the first dose of the test compound (for the test group) or vehicle (saline) (for the control group), and the test compound or vehicle was given for 3 days. The plasma creatinine concentrations were measured in all rats on the 8th day.
On to `O=C(O)CC1=C(n2nc(-c3c(-c4ccccc4)nn4ccccc34)ccc2=O)CCCCC1` [Example 19, 3-[2-(2-carboxymethyl-1-cycloheptenyl)-3-oxo-2,3-dihydropyridazin-6-yl]-2-phenylpyrazolo[1,5-a]-pyridine], for which the serum creatinine is reported as 1.32** mg/dl.

For a further series the test system is unchanged. Briefly: Test 2. Effect on Cisplatin-induced Renal Failure. Type of series: in vivo. The note with it: Male JCL:SD rats, cisplatin 4.5 mg/kg i.p. 60 minutes after first dose; test compound 0.1 mg/kg i.v. twice a day for 8 days; measured on the 8th day; mean; P < 0.05 vs control group. Here is the method:
Male JCL:SD strain rats aged 9 weeks weighing 280-300 g received cisplatin (4.5 mg/kg) intraperitoneally. Normal rats were injected with an equal amount of saline instead of cisplatin. The effect of chronic intravenous administration of the test compound (0.1 mg/kg, twice a day) on cisplatin induced renal failure was investigated in rats. […] The plasma creatinine concentrations were measured in all rats on the 8th day.
As for `O=C(O)CC1=C(n2nc(-c3c(-c4ccccc4)nn4ccccc34)ccc2=O)CCCC1` [Example 58, 3-[2-(2-carboxymethyl-1-cyclohexenyl)-3-oxo-2,3-dihydropyridazin-6-yl]-2-phenylpyrazolo[1,5-a]pyridine], the serum creatinine was 1.10* mg/dl.

Test system in another series: not given
Experiment: not given
Conditions: not given
As for `O=C(O)CN1CCC(n2nc(-c3c(-c4ccccc4)nn4ccccc34)ccc2=O)C1=O` (centres unmarked) [Example 42, 3-[2-(1-Carboxymethyl-2-oxo-pyrrolidin-3-yl)-3-oxo-2,3-dihydropyridazin-6-yl]-2-phenylpyrazolo[1,5-a]pyridine], the melting point is 250 to 251 °C.
Still for that read-out and setting: the same measure for `CC(C)(C)OC(=O)/C=C1\CCCCC1n1nc(-c2c(-c3ccccc3)nn3ccccc23)ccc1=O` (centres unmarked) [Example 95(3), (E)-3-[2-{2-(tert-Butoxycarbonylmethylene)-cyclohexyl}-3-oxo-2,3-dihydropyridazin-6-yl]-2-phenylpyrazolo[1,5-a]pyridine]: 110 to 116 °C; for `O=c1ccc(-c2c(-c3ccccc3)nn3ccccc23)nn1C1CCCC(O)C1` (centres unmarked) [Example 104, 3-[2-(3-hydroxycyclohexyl)-3-oxo-2,3-dihydropyridazin-6-yl]-2-phenylpyrazolo[1,5-a]pyridine]: 117 to 118 °C.
The same measure, in the same setting: the same measure for `O=C1NCCCC1n1nc(-c2c(-c3ccccc3)nn3ccccc23)ccc1=O` (centres unmarked) [Example 26, 3-[2-(2-Oxopiperidin-3-yl)-3-oxo-2,3-dihydropyridazin-6-yl]-2-phenylpyrazolo[1,5-a]pyridine]: 140 to 145 °C (dec.); for `CCCn1c(=O)cc(-n2nc(-c3c(-c4ccccc4)nn4ccccc34)ccc2=O)n(CC(=O)OC)c1=O` [Example 28, 3-[2-(2,4-Dioxo-1-methoxycarbonylmethyl-3-propyl-1,2,3,4-tetrahydropyrimidin-6-yl)-3-oxo-2,3-dihydropyridazin-6-yl]-2-phenylpyrazolo[1,5-a]pyridine]: 143 to 145 °C; for `O=C(O)[C@@H]1CC[C@H](n2nc(-c3c(-c4ccccc4)nn4ccccc34)ccc2=O)C(=O)C1` (relative stereo) [Example 13, cis-3-[2-(4-carboxy-2-oxocyclohexyl)-3-oxo-2,3-dihydropyridazin-6-yl]-2-phenylpyrazolo[1,5-a]pyridine]: 186 to 188 °C.
On the same count and under the same terms, the same measure for `O=C(CC1=C(n2nc(-c3c(-c4ccccc4)nn4ccccc34)ccc2=O)CCCC1)N1CCCCC1` [Example 85, 3-[2-{2-(Piperidinocarbonyl)methyl-1-cyclohexenyl}-3-oxo-2,3-dihydropyridazin-6-yl]-2-phenylpyrazolo[1,5-a]-pyridine]: 184 to 185 °C; for `O=C1NCCC1n1nc(-c2c(-c3ccccc3)nn3ccccc23)ccc1=O` (centres unmarked) [Example 23, 3-[2-(2-Oxopyrrolidin-3-yl)-3-oxo-2,3-dihydropyridazin-6-yl]-2-phenylpyrazolo[1,5-a]pyridine]: 133 to 134 °C (dec.); for `CN1CCN(C(=O)CC2=C(n3nc(-c4c(-c5ccccc5)nn5ccccc45)ccc3=O)CCCC2)CC1.Cl` (hydrate or solvate): 188 to 191 °C.
Regarding `CC(C)(C)OC(=O)/C=C1/CCCCC1n1nc(-c2c(-c3ccccc3)nn3ccccc23)ccc1=O` (centres unmarked) [Example 98, (Z)-3-[2-{2-(tert-butoxycarbonyl-methylene)cyclohexyl}-3-oxo-2,3-dihydropyridazin-6-yl]-2-phenylpyrazolo[1,5-a]pyridine], the melting point is 171 to 172 °C.
The same measure, in the same setting: the same measure for `O=C(O)C1CCCCC1n1nc(-c2c(-c3ccccc3)nn3ccccc23)ccc1=O` (centres unmarked) [Example 109, 3-[2-(2-carboxycyclohexyl)-3-oxo-2,3-dihydropyridazin-6-yl]-2-phenylpyrazolo[1,5-a]pyridine]: 164 °C.
Still for that read-out and setting: the same measure for `CON=C1CCCCC1n1nc(-c2c(-c3ccccc3)nn3ccccc23)ccc1=O` (centres unmarked) [Example 90, 3-[2-{2-(Methoxyimino)cyclohexyl}-3-oxo-2,3-dihydropyridazin-6-yl]-2-phenylpyrazolo[1,5-a]pyridine]: 85 to 87 °C.
